pIC50: −log10 of the molar value.
Assays:
Type in all cases: functional, cell-based
HCT-15 = assay: Cytotoxicity against human HCT-15 cells
SK-LU-1 = assay: Cytotoxicity against human SKLU1 cells
K562 = assay: Cytotoxicity against human K-562 cells
MCF7 = assay: Cytotoxicity against human MCF7 cells
PC-3 = assay: Cytotoxicity against human PC-3 cells
U-251 = assay: Cytotoxicity against human U251 cells

Measured: pIC50

COc1c2c3c(c4c(COC(C)=O)coc14)C(=O)OC[C@H]3CC=C2 [ANGULIFOLIDE]
< 5.00: HCT-15 | SK-LU-1 | K562 | MCF7 | PC-3 | U-251

COc1c2c(c(C=O)c3c(COC(C)=O)coc13)[C@@H](C)CC=C2
< 5.00: HCT-15 | SK-LU-1 | K562 | MCF7 | PC-3 | U-251

COc1c2c(c(C=O)c3c(CO)coc13)[C@@H](C)CC=C2
< 5.00: HCT-15 | SK-LU-1 | K562 | MCF7 | PC-3 | U-251

— ChEMBL document CHEMBL1158144, “Cacalol derivatives from Roldana angulifolia” (J Nat Prod, 2006)
